ChEMBL document CHEMBL4342406, “Revealing quinquennial anticancer journey of morpholine: A SAR based review” (Eur J Med Chem, 2019)
Each block holds one compound with its values, some of them ahead of it.

Key:
[1] = target: Epidermal growth factor receptor (Homo sapiens, UniProt P00533, T790M); experiment: Inhibition of EGFR T790M mutant (unknown origin) incubated for 60 mins by ADP-Glo kinase assay
Lymphocyte = experiment: Cytotoxicity against human lymphocytes assessed as reduction in cell viability after 72 hrs by MTT assay; type: cell-based
A549 [2] = experiment: Cytotoxicity against human A549 cells assessed as reduction in cell viability after 72 hrs by MTT assay; type: functional, cell-based; details: A549, 72 h
HT-29 = experiment: Cytotoxicity against human HT-29 cells assessed as reduction in cell viability after 72 hrs by MTT assay; type: functional, cell-based; details: HT-29, 72 h
A549 [3] = experiment: Antiproliferative activity in human A549 cells by MTT assay; type: functional, cell-based
MCF7 [4] = experiment: Antiproliferative activity in human MCF7 cells by MTT assay; type: functional, cell-based
BEL-7404 tumor cell line = experiment: Antiproliferative activity in human Bel7404 cells by MTT assay; type: functional, cell-based
QGY-7703 = experiment: Antiproliferative activity in human QGY7703 cells after 72 hrs by MTS assay; type: functional, cell-based; details: QGY-7703, 72 h
Bel-7402 = experiment: Antiproliferative activity in human Bel7402 cells after 72 hrs by MTS assay; type: functional, cell-based; details: Bel-7402, 72 h
SMMC-7721 = experiment: Antiproliferative activity in human SMMC7721 cells after 72 hrs by MTS assay; type: functional, cell-based; details: SMMC-7721, 72 h
MCF7 [5] = experiment: Cytotoxicity against human MCF7 cells assessed as reduction in cell viability incubated for 3 days by MTT assay; type: functional, cell-based; details: MCF7, 72 h

Sequence of Epidermal growth factor receptor (P00533 25-1210 T790M limits assumed): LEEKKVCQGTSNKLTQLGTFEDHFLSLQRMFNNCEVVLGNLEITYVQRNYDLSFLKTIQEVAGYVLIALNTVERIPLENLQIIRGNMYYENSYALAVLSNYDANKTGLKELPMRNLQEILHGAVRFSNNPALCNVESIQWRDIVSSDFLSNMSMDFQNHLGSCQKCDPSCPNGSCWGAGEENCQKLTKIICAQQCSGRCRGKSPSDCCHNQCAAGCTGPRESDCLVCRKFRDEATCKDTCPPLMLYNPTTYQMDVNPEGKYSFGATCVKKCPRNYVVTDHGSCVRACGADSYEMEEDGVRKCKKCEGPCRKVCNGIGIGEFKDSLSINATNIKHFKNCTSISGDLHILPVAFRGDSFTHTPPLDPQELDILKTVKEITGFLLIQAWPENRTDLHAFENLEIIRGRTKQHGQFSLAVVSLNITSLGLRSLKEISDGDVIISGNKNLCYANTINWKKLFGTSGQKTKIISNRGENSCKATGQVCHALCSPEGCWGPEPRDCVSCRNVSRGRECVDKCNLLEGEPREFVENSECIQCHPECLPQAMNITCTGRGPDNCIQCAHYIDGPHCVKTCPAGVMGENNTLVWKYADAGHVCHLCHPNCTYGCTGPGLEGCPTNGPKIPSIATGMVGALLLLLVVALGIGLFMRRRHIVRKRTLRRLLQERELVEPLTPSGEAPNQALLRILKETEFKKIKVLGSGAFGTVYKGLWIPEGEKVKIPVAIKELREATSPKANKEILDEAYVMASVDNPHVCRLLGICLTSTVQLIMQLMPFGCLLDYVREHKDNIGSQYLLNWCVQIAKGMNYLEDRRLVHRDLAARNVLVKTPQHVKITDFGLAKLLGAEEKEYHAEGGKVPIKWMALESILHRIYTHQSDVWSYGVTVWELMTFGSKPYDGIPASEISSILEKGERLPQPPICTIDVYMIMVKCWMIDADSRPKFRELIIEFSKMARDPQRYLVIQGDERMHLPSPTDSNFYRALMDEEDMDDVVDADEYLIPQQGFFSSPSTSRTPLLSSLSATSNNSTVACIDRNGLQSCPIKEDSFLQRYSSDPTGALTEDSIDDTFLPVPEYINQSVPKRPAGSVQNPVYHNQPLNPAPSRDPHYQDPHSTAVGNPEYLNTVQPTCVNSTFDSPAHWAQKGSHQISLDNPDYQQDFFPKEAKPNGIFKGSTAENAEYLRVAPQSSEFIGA

IC50 [1]: 0.0043 µM
Structure (SMILES): C=CC(=O)Nc1cccc(Nc2ncnc3cc(OC)c(OCCN4CCOCC4)cc23)c1

Structure (SMILES): COc1ccc(Cn2cnc3c(cc(N4CCOCC4)c4ccccc43)c2=O)cc1
IC50 (Lymphocyte): 175 µM | IC50 (A549 [2]): 134 µM | IC50 (HT-29): 4.12 µM

IC50 (A549 [3]): 11.7 µM | IC50 (MCF7 [4]): 13 µM | IC50 (BEL-7404 tumor cell line): 25.8 µM
Structure (SMILES): CCCCCCCCCC[C@H](O)COCCOC[C@@H](O)CCCCCCCCCCCCCCN1CCOCC1

IC50 (Bel-7402): 0.285 µM | IC50 (SMMC-7721): 0.123 µM
Structure (SMILES): O=c1ccc(-c2cc(C(F)(F)F)c(N3CCOCC3)nn2)n[nH]1
IC50 (QGY-7703): 0.178 µM

Structure (SMILES): COc1c2ccoc2c(S(=O)(=O)N2CCOCC2)c2oc(C)c(C(C)=O)c(=O)c12
IC50 (MCF7 [5]): 0.125 µM
